What was measured:
[1] = test system: LPS-induced NO production; test: Inhibition of LPS-induced NO production in RAW 264.7 macrophages (Griess nitrite); type: cell-based, mouse; settings: RAW 264.7, 30 μM, LPS 200 ng/mL + IFN-γ 10 U/mL, 18 hours
Protocol: Mouse macrophages (RAW 264.7) were plated in 6-well plate (2 million cells/well), and incubated at 37° C. with LPS (200 ng/mL+IFN-γ 10 U/mL) for 18 hours. Nitrite levels were measured by the Griess reagent. All of the compounds were tested at 30 μM concentrations.

[2] = test system: human liver cells (HepG2); test: Cytotoxicity in HepG2 cells (MTS viability); settings: 24 hours, up to 100 μM
Protocol: To find the cytotoxic effect of this class of new thiazolidinedione compounds (TZD), they were incubated in HepG2 cells for 24 hours and then the viability was measured by colorimetric reactions with MTS.

3T3-L1 adipocytes = test: Basal glucose uptake in 3T3-L1 adipocytes (14C-2-deoxyglucose); type: cell-based; settings: 1.0 μM, 72 hours treatment, 10 minutes uptake without insulin, vs 0.1% DMSO
Protocol: Referring to FIG. 1, 3T3-L1 fibroblasts were differentiated to adipocytes by a cocktail containing insulin, dexamethasone and IBMX for four days. Fully differentiated adipocytes were treated with the compounds (1.0 μM concentrations) or 0.1% DMSO for 72 hours and then glucose uptake was carried out for 10 minutes without any addition of insulin. Basal uptake was initiated by addition of radioactive ^14C-2-deoxyglucose and after 10 minutes they were washed with cold PBS mixed with cold glucose. At the end, the cells were solubilized with 0.1% SDS and counted in a Beckman scintillation counter.

db/db mice [3] = test: Serum cholesterol in db/db mice; type: in vivo; settings: 50 mg/kg once daily for 14 days
Protocol: Referring to FIG. 6, db/db mice (6-8 weeks old) were treated with Compound 2 (50 mg/kg) once daily for 14 days. At the end of the study serum cholesterol was measured by a calorimetric method.

TNFα = TNFα inhibition in LPS-challenged human PBMC (ELISA); type: cell-based; settings: 10 μM, LPS 100 ng/mL for 20 hours
Protocol: Referring to FIG. 7, human PBMC cells were cultured and incubated with Compound 1 and 2 at 10 μM concentration. Cells (1×10^6/mL) were challenged with lipopolysaccharides (LPS) at a concentration of (100 ng/mL) for 20 hours. TNF was measured by ELISA.

3T3-L1 fibroblasts = test: Adipogenesis in 3T3-L1 fibroblasts (Oil-red-O staining); type: cell-based; settings: stained on day 11, rosiglitazone 10 μM positive control
Protocol: All known PPAR-γ agonists (both TZD or non-TZDs) induce differentiation in the fibroblast cells. The adipogenic potential of these compounds are correlated with their affinity to this receptor. Referring to FIG. 3, to check whether the Compounds 1 and 2 have any affinity to these receptors, 3T3-L1 fibroblasts were treated with either DMSO control or rosiglitazone (all at 10 μM concentrations) as positive control or these two compounds for several days at different concentrations. On day 11th, the differentiated adipocytes were stained with Oil-red-O (Sigma) and washed thoroughly to remove the unbound stain. The stained differentiated adipocytes were visualized under high-resolution microscope.

db/db mice [4] = test: Oral glucose tolerance in db/db mice; type: in vivo; settings: 50 mg/kg once daily for 14 days, oral glucose challenge 2 g/kg BW
Protocol: Referring to FIG. 5, db/db mice (6-8 weeks old) were treated with Compound 2 (50 mg/kg) once daily for 14 days. On day 14 the animals were fasted overnight and gavaged with Compound 2, one hour prior to oral glucose challenge (2 g/kg BW).

[5] = test system: db/db (spontaneous model) diabetic mice; test: Blood glucose lowering in db/db diabetic mice; type: in vivo; settings: oral, 50 mg/kg body weight, daily
Protocol: Referring to FIG. 4, ten week old male db/db (spontaneous model) diabetic mice were orally treated with compound 1 at a dose of 50 mg/kg body weight and blood glucose was monitored by one touch glucometer every day morning before the next dose.

Compound	inhibition of LPS-induced NO production (nitrite concentration) [1]	cytotoxicity (viability by MTS) [2]	basal glucose uptake (3T3-L1 adipocytes)	serum cholesterol (db/db mice [3])	inhibition of pro-inflammatory cytokines (TNF by ELISA) (TNFα)	adipogenesis (differentiation of fibroblasts, Oil-red-O) (3T3-L1 fibroblasts)	glucose tolerance (db/db mice [4])	blood glucose [5]
O=C(O)Cc1ccc(Oc2ccc(CC3SC(=O)NC3=O)cc2)cc1 (stereo not drawn) [Compound 1, {4-[4-(2,4-Dioxothiazolidin-5-ylmethyl)phenoxy]-phenyl}acetic acid]	inhibition of LPS-induced NO production	did not show any toxicity	induced glucose uptake over basal levels	serum cholesterol lowering effect	inhibit major pro-inflammatory cytokines	non-adipogenic		
{4-[4-(2,4-Dioxo-thiazolidin-5-ylmethyl)-phenoxy]-phenyl}-acetic acid disodium salt [Compound 2]	inhibition of LPS-induced NO production		induced glucose uptake over basal levels		inhibit major pro-inflammatory cytokines	non-adipogenic	improvement in glucose tolerance	blood glucose lowering effect

From US7781464B2, “Heterocyclic diphenyl ethers” (Bexel Pharmaceuticals, Inc., priority 2003, dated 2010)
